# Biological target: T1, Interstitial collagenase (Homo sapiens, UniProt P03956)
# T1 sequence (P03956 whole entry): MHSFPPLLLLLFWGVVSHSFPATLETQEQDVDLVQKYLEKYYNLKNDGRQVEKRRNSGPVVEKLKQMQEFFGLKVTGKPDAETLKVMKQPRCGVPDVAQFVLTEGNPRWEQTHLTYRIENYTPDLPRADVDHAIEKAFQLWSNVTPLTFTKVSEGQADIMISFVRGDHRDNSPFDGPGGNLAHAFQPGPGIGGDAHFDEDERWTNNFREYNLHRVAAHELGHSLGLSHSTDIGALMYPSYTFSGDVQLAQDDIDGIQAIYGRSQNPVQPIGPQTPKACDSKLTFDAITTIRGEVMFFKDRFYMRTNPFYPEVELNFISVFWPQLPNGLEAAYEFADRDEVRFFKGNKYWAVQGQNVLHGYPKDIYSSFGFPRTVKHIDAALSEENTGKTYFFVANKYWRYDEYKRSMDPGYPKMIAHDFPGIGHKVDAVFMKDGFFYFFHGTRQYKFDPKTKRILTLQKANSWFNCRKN
# Assay: Inhibition of human fibroblast collagenase
row,SMILES,IC50
1,CNC(=O)[C@H](Cc1ccccc1)NC(=O)[C@H](CC(C)C)NC(CCN1C(=O)c2ccccc2C1=O)P(=O)(O)O (stereo not given in full),360 nM
2,CNC(=O)[C@H](CC(C)C)NC(=O)[C@H](CC(C)C)CP(=O)(O)CNC(C)=O,37000 nM
3,CNC(=O)[C@H](Cc1ccccc1)NC(=O)[C@H](CC(C)C)NC(CN1C(=O)c2cccc3cccc(c23)C1=O)P(=O)(O)O (stereo not given in full),2120 nM
4,CNC(=O)[C@H](Cc1ccccc1)NC(=O)[C@H](CC(C)C)NC(CCN1C(=O)c2cccc3cccc(c23)C1=O)[PH](=O)O (stereo not given in full),> 100000 nM
5,CNC(=O)[C@H](Cc1ccccc1)NC(=O)[C@H](CC(C)C)N[C@@H](CCN1C(=O)c2ccccc2C1=O)P(=O)(O)O,190 nM

# Continued, values first:
row,IC50,SMILES
1,20 nM,CNC(=O)[C@H](Cc1ccccc1)NC(=O)[C@H](CC(C)C)N[C@@H](CCN1C(=O)c2cccc3c(Br)ccc(c23)C1=O)P(=O)(O)O
2,730 nM,CNC(=O)[C@H](Cc1ccccc1)NC(=O)[C@H](CC(C)C)NC(CCCN1C(=O)c2cccc3cccc(c23)C1=O)P(=O)(O)O (stereo not given in full)
3,150 nM,CNC(=O)[C@H](Cc1ccccc1)NC(=O)[C@H](CC(C)C)N[C@H](CCN1C(=O)c2cccc3cccc(c23)C1=O)P(=O)(O)O
4,1630 nM,CNC(=O)[C@H](Cc1ccccc1)NC(=O)[C@H](CC(C)C)N[C@H](CCN1C(=O)c2cccc3c(Br)ccc(c23)C1=O)P(=O)(O)O
5,30 nM,CNC(=O)[C@H](Cc1ccccc1)NC(=O)[C@H](CC(C)C)N[C@@H](CCN1C(=O)c2cccc3cccc(c23)C1=O)P(=O)(O)O
